Converted amounts (≈) assume the structure as drawn. Blank lines part the entries; values can stand above or below the molecule they belong to.
Assays:
[1] = molecular target: T1, Voltage-gated inwardly rectifying potassium channel KCNH2 (Homo sapiens, UniProt Q12809); test: Displacement of Tracer Red from human ERG by fluorescence polarization assay
Chitotriosidase-1 [2] = molecular target: Chitotriosidase-1 (Mus musculus, UniProt Q9D7Q1); test: Inhibition of full-length C-terminal his-tagged mouse CHIT1 expressed in CHO-K1 cells assessed as reduction in chitinolytic activity using 4-methylumbelliferyl-beta-D-N,N',N\"-triacetylchitotrioside as substrate after 60 mins by fluorometric assay; format: cell-based
Chain of Chitotriosidase-1 (Mus musculus, UniProt Q9D7Q1) (Q9D7Q1 whole entry): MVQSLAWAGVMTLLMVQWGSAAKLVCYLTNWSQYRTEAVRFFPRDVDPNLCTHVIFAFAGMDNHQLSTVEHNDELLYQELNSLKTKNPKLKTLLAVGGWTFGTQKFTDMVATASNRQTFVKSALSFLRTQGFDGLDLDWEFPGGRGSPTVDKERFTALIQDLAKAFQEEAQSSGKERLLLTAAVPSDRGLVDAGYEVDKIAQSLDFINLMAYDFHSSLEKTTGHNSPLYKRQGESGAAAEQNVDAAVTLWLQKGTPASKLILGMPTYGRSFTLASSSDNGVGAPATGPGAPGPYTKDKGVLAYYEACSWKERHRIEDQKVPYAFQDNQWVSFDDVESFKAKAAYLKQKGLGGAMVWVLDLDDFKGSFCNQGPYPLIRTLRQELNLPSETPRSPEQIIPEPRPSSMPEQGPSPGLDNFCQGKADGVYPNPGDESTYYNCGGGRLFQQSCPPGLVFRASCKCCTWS

[3] = molecular target: Acidic mammalian chitinase (Mus musculus, UniProt Q91XA9); test: Inhibition of full-length C-terminal his-tagged mouse acidic mammalian chitinase expressed in CHO-K1 cells assessed as reduction in chitinolytic activity using 4-methylumbelliferyl-beta-D-N,N'-diacetylchitobioside hydrate as substrate after 60 mins by fluorometric assay
Chain of Acidic mammalian chitinase (Mus musculus, UniProt Q91XA9) (Q91XA9 whole entry): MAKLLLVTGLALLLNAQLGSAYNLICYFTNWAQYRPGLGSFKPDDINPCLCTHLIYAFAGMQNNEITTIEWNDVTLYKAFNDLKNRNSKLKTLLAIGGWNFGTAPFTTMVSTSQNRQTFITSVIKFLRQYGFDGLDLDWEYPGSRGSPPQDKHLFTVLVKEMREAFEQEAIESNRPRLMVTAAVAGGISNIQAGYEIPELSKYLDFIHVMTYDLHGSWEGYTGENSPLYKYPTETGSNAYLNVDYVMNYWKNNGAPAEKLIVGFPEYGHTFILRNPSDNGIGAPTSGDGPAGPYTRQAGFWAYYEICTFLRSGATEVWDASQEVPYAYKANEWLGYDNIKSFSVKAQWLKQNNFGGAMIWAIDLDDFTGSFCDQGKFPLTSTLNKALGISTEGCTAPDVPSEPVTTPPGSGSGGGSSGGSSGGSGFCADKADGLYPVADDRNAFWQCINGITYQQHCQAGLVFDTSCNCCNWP

Chitotriosidase-1 [4] = molecular target: Chitotriosidase-1 (Homo sapiens, UniProt Q13231); test: Inhibition of full-length C-terminal his-tagged human CHIT1 expressed in CHOK1 cells assessed as reduction in chitinolytic activity using 4-methylumbelliferyl-beta-D-N,N',N\"-triacetylchitotrioside as substrate after 60 mins by fluorometric assay; format: cell-based
Chain of Chitotriosidase-1 (Homo sapiens, UniProt Q13231) (Q13231 whole entry): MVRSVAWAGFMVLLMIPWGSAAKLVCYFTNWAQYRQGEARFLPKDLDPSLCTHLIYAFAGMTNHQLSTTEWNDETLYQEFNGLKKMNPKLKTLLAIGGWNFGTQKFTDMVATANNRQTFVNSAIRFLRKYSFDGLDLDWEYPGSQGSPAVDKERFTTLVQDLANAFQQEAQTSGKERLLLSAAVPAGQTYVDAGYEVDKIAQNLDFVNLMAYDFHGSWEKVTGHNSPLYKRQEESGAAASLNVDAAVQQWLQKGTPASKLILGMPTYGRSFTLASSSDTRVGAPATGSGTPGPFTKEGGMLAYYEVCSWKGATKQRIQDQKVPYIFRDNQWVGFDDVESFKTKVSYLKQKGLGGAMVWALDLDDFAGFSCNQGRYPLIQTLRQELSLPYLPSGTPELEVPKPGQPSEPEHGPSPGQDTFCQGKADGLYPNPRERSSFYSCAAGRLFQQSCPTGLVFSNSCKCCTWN

[5] = Lipophilicity, logD of the compound at pH 7.4; format: physicochemical; conditions: buffer
[6] = molecular target: dopamine transporter (DAT) (Homo sapiens, UniProt Q01959); test: Displacement of [3H]BTCP from recombinant human dopamine transporter at 10 uM after 120 mins by scintillation counting analysis relative to control; format: ADME; conditions: probe [3H]BTCP
Chain of dopamine transporter (DAT) (Q01959 whole entry): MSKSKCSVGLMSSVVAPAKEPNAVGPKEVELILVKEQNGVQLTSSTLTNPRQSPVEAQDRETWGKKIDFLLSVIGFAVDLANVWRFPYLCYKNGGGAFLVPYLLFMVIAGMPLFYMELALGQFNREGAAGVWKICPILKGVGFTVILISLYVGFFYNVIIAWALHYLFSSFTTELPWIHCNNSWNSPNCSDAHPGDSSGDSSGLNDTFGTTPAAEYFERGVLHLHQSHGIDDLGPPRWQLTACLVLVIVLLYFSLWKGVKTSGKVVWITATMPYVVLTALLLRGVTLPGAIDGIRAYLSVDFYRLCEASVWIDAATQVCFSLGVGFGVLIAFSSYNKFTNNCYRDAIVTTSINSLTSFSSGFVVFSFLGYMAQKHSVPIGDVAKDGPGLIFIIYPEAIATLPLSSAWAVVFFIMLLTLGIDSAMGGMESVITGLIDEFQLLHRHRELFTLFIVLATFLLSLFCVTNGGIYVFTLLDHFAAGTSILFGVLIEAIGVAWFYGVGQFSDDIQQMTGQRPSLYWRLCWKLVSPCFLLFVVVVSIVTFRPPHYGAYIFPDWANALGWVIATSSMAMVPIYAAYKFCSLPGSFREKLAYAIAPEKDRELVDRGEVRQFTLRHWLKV

Mus musculus = test: Antiinflammatory activity in C57BL/6 mouse model of house-dust mite induced pulmonary inflammation assessed as reduction in total CD45 positive cells in bronchoalveolar lavage fluid at 50 mg/kg, po administered once daily starting from day 7 post house-dust mite challenge and measured on day 19 by flow cytometric method relative to control; format: functional; parameters: scale not given: the % may be the effect or the level left
[7] = Drug uptake in BALB/c mouse brain at 10 mg/kg, po administered as single dose after 2 hrs by LC/MS/MS analysis; format: ADME, organism-based; conditions: in vivo
[8] = molecular target: Sodium-dependent dopamine transporter (Homo sapiens, UniProt Q01959); test: Inhibition of radioligand binding to human dopamine transporter by radioligand binding assay; format: ADME
Chain of Sodium-dependent dopamine transporter (Homo sapiens, UniProt Q01959) (Q01959 whole entry): as above

[9] = molecular target: Sodium-dependent dopamine transporter (Rattus norvegicus, UniProt P23977); test: Displacement of [3H]DA from rat dopamine transporter after 15 mins by scintillation counting analysis; format: ADME
Chain of Sodium-dependent dopamine transporter (Rattus norvegicus, UniProt P23977) (P23977 whole entry): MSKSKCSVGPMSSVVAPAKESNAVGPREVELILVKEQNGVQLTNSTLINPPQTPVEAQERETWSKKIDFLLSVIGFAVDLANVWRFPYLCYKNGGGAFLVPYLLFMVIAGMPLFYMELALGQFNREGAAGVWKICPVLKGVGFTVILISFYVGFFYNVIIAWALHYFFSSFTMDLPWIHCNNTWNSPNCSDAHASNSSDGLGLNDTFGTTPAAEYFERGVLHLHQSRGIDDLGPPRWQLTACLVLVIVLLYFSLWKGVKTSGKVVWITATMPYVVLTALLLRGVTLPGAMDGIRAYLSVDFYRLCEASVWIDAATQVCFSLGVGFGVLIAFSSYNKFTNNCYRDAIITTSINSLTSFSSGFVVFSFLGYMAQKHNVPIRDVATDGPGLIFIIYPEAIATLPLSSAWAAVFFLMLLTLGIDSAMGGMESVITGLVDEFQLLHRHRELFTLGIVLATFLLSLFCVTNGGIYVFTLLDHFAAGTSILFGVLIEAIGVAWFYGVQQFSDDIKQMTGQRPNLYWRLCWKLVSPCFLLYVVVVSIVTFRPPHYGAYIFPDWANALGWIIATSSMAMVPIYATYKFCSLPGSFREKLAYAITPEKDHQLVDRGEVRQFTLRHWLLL

[10] = molecular target: T1, Voltage-gated inwardly rectifying potassium channel KCNH2; test: Inhibition of human ERG expressed in CHO-K1 cells by automated Patch Clamp method; format: cell-based
[11] = Oral bioavailability in Sprague-Dawley rat at 10 mg/kg measured upto 12 hrs by LC/MS/MS analysis; format: ADME, organism-based; conditions: in vivo
[12] = Tmax in Sprague-Dawley rat at 10 mg/kg, po measured upto 12 hrs by LC/MS/MS analysis; format: ADME, organism-based; conditions: in vivo
[13] = Genotoxicity in Salmonella typhimurium; format: toxicity; conditions: salmonella enterica subsp. enterica serovar typhimurium
[14] = Half-life in Sprague-Dawley rat at 10 mg/kg, po measured upto 12 hrs by LC/MS/MS analysis; format: ADME, organism-based; conditions: in vivo
[15] = Cmax in Sprague-Dawley rat at 10 mg/kg, po measured upto 12 hrs by LC/MS/MS analysis; format: ADME, organism-based; parameters: dose 10 mg/kg, route oral; conditions: in vivo
[16] = AUC (0 to infinity) in Sprague-Dawley rat at 10 mg/kg, po measured upto 12 hrs by LC/MS/MS analysis; format: ADME, organism-based; parameters: dose 10 mg/kg, route oral, time infinity; conditions: in vivo
[17] = Half-life in Sprague-Dawley rat at 3 mg/kg, iv administered as single bolus dose measured after 5 to 12 hrs by LC/MS/MS analysis; format: ADME, organism-based; conditions: in vivo
[18] = Cmax in Sprague-Dawley rat at 3 mg/kg, iv administered as single bolus dose measured after 5 to 12 hrs by LC/MS/MS analysis; format: ADME, organism-based; parameters: dose 3 mg/kg, route intravenous; conditions: in vivo
[19] = AUC (0 to infinity) in Sprague-Dawley rat at 3 mg/kg, iv administered as single bolus dose measured after 5 to 12 hrs by LC/MS/MS analysis; format: ADME, organism-based; parameters: dose 3 mg/kg, time infinity, route intravenous; conditions: in vivo
[20] = Oral bioavailability in BALB/c mouse at 10 mg/kg measured after 24 hrs by LC/MS/MS analysis; format: ADME, organism-based; conditions: in vivo
[21] = Tmax in BALB/c mouse at 10 mg/kg, po measured after 24 hrs by LC/MS/MS analysis; format: ADME, organism-based; conditions: in vivo
[22] = AUC (0 to infinity) in BALB/c mouse at 10 mg/kg, po measured after 24 hrs by LC/MS/MS analysis; format: ADME, organism-based; parameters: dose 10 mg/kg, route oral, time infinity; conditions: in vivo
[23] = Cmax in BALB/c mouse at 10 mg/kg, po measured after 24 hrs by LC/MS/MS analysis; format: ADME, organism-based; parameters: dose 10 mg/kg, route oral; conditions: in vivo
[24] = Half-life in BALB/c mouse at 10 mg/kg, po measured after 24 hrs by LC/MS/MS analysis; format: ADME, organism-based; conditions: in vivo
[25] = Half-life in BALB/c mouse at 3 mg/kg, iv administered as single bolus dose measured after 24 hrs by LC/MS/MS analysis; format: ADME, organism-based; conditions: in vivo
[26] = Clearance in BALB/c mouse at 3 mg/kg, iv administered as single bolus dose measured after 24 hrs by LC/MS/MS analysis; format: ADME, organism-based; conditions: in vivo
[27] = Cmax in BALB/c mouse at 3 mg/kg, iv administered as single bolus dose measured after 24 hrs by LC/MS/MS analysis; format: ADME, organism-based; parameters: dose 3 mg/kg, route intravenous; conditions: in vivo
[28] = Solubility of the compound in water; format: physicochemical
[29] = AUC (0 to infinity) in BALB/c mouse at 3 mg/kg, iv administered as single bolus dose measured after 24 hrs by LC/MS/MS analysis; format: ADME, organism-based; parameters: dose 3 mg/kg, time infinity, route intravenous; conditions: in vivo
[30] = molecular target: Acidic mammalian chitinase (Homo sapiens, UniProt Q9BZP6); test: Inhibition of full-length C-terminal his-tagged human acidic mammalian chitinase expressed in CHOK1 cells assessed as reduction in chitinolytic activity using 4-methylumbelliferyl-beta-D-N,N-diacetylchitobioside hydrate as substrate after 60 mins by fluorometric assay
Chain of Acidic mammalian chitinase (Homo sapiens, UniProt Q9BZP6) (Q9BZP6 whole entry): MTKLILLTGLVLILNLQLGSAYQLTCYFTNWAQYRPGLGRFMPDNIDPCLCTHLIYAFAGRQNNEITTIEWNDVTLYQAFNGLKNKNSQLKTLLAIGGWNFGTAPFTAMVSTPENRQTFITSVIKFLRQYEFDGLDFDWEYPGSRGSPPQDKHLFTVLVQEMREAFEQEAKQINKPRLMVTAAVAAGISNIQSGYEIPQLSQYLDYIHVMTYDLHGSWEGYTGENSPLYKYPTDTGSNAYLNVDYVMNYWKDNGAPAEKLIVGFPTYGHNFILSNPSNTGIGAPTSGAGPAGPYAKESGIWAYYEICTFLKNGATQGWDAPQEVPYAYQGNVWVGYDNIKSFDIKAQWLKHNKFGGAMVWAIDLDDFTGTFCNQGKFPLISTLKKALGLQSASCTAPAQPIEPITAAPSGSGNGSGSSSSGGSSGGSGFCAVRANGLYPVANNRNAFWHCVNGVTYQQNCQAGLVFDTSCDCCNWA

T1 sequence (Q12809 whole entry): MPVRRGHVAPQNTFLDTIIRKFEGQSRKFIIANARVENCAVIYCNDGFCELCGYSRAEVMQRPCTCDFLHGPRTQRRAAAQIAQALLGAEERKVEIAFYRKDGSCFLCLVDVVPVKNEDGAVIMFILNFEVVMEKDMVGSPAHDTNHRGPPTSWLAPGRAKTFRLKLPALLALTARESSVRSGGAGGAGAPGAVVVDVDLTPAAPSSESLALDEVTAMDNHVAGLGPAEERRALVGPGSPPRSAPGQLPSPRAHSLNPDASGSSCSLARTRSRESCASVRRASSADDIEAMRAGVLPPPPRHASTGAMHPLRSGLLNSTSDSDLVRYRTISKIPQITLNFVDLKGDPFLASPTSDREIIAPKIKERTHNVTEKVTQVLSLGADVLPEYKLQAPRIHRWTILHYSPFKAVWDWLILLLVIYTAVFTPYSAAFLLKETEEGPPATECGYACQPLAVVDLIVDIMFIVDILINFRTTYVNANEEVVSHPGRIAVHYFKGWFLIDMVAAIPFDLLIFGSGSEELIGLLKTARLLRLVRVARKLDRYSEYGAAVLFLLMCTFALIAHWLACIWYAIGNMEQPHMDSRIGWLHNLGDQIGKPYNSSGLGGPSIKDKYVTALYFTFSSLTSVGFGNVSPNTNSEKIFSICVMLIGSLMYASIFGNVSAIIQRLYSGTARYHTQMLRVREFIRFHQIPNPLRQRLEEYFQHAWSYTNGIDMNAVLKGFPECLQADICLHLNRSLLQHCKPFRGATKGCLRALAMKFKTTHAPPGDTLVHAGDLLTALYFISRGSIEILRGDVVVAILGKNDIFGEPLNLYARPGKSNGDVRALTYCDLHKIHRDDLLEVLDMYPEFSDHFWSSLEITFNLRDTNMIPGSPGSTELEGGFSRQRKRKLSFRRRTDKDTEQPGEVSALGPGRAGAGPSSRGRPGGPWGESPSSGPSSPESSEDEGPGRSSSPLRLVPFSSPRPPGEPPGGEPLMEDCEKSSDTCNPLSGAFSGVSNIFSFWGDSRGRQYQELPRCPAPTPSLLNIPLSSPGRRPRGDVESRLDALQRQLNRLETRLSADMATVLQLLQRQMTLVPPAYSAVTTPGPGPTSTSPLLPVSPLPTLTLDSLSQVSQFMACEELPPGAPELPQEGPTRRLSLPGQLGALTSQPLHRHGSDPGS

Structure (SMILES): Nc1nnc(N2CCC(N3C[C@@H](O)C[C@@H]3Cc3ccc(Cl)cc3)CC2)[nH]1
logD [5]: 0.81
IC50 [1]: 13200 nM
IC50 (Chitotriosidase-1 [2]): 520 nM
IC50 [3]: 170 nM

Structure (SMILES): CC(C)(O)CN(CCc1ccc(Cl)cc1)C1CCN(c2nc(N)n[nH]2)CC1
IC50 [1]: 19000 nM
IC50 (Chitotriosidase-1 [2]): 4700 nM
IC50 [3]: 73 nM
IC50 (Chitotriosidase-1 [4]): 395 nM

Structure (SMILES): CS(=O)(=O)NCCN(CCc1ccc(Cl)cc1)C1CCN(c2nc(N)n[nH]2)CC1
inhibition at 2 h, 10 µM [6]: 4%
IC50 [1]: 7200 nM
IC50 (Chitotriosidase-1 [2]): 12500 nM
IC50 [3]: 22 nM
IC50 (Chitotriosidase-1 [4]): 1200 nM

Structure (SMILES): Nc1n[nH]c(N2CCC(N(CCc3ccc(Cl)cc3)CC3CCCCO3)CC2)n1 (centres undefined)
inhibition at 2 h, 10 µM [6]: 50%
IC50 [1]: 11000 nM
IC50 (Chitotriosidase-1 [2]): 750 nM
IC50 [3]: 56 nM
IC50 (Chitotriosidase-1 [4]): 21 nM

Structure (SMILES): CO[C@H]1CN(C2CCN(c3nnc(N)[nH]3)CC2)[C@H]1Cc1ccc(Cl)cc1
logD [5]: 1.55
IC50 [1]: 340 nM
IC50 (Chitotriosidase-1 [2]): 5550 nM
IC50 [3]: 485 nM
IC50 (Chitotriosidase-1 [4]): 580 nM

Structure (SMILES): CO[C@@H]1C[C@H](Cc2ccc(Cl)cc2)N(C2CCN(c3n[nH]c(N)n3)CC2)C1
logD [5]: 1.56
IC50 (Chitotriosidase-1 [2]): 255 nM
IC50 [3]: 21 nM
IC50 (Chitotriosidase-1 [4]): 44 nM

Now from value to molecule, other results behind:

IC50 (Chitotriosidase-1 [2]): 5500 nM
IC50 [3]: 27 nM
IC50 (Chitotriosidase-1 [4]): 180 nM
Structure (SMILES): Nc1n[nH]c(N2CCC(N(CCc3ccc(Cl)cc3)C3COC3)CC2)n1
IC50 [1]: 4400 nM

IC50 (Chitotriosidase-1 [2]): 19000 nM
IC50 [3]: 335 nM
IC50 (Chitotriosidase-1 [4]): 1850 nM
Structure (SMILES): Nc1n[nH]c(N2CCC(N3CCCC(c4ccc(Cl)cc4)C3)CC2)n1 (centres undefined)

IC50 (Chitotriosidase-1 [2]): 12500 nM
IC50 [3]: 110 nM
IC50 (Chitotriosidase-1 [4]): 530 nM
Structure (SMILES): CO[C@H](C)CN(CCc1ccc(Cl)cc1)C1CCN(c2nc(N)n[nH]2)CC1
IC50 [1]: 6400 nM

inhibition at 2 h, 10 µM [6]: 13%
IC50 (Chitotriosidase-1 [2]): 7550 nM
IC50 [3]: 21 nM
IC50 (Chitotriosidase-1 [4]): 870 nM
Structure (SMILES): CNS(=O)(=O)CCN(CCc1ccc(Cl)cc1)C1CCN(c2nc(N)n[nH]2)CC1

IC50 (Chitotriosidase-1 [2]): 6800 nM
IC50 (Chitotriosidase-1 [4]): 330 nM
Structure (SMILES): C[C@@H](O)CN(CCc1ccc(Cl)cc1)C1CCN(c2nc(N)n[nH]2)CC1
IC50 [1]: 6100 nM

Drug uptake [7]: 6.8%
IC50 [8]: 300 nM
IC50 [9]: 7900 nM
bioavailability [11]: 48%
Tmax [12]: 1.5 h
half-life [14]: 2.14 h
Cmax [15]: 1560 ng/mL
AUC(0-inf) [16]: 8010 ng·h/mL
half-life [17]: 7.95 h
Cmax [18]: 16500 ng/mL
AUC [19]: 4980 ng·h/mL
bioavailability [20]: 70%
Tmax [21]: 1 h
AUC(0-inf) [22]: 11100 ng·h/mL
Cmax [23]: 2390 ng/mL
half-life [24]: 2.68 h
half-life [25]: 2.5 h
clearance [26]: 10.5 mL/min/kg
Cmax [27]: 1590 ng/mL
solubility [28]: 310 µg/mL (≈ 823 µM)
AUC(0-inf) [29]: 4760 ng·h/mL
logD [5]: 1.96
inhibition at 2 h, 10 µM [6]: 95%
IC50 (Chitotriosidase-1 [2]): 74 nM
IC50 [3]: 30 nM
IC50 (Chitotriosidase-1 [4]): 48 nM
IC50 [30]: 22 nM
Structure (SMILES): Nc1nnc(N2CCC(N3CCOC[C@@H]3Cc3ccc(Cl)cc3)CC2)[nH]1
Activity (Mus musculus): 37%
IC50 [10]: 12000 nM
Activity [13]: Non-Toxic
IC50 [1]: 39000 nM

IC50 (Chitotriosidase-1 [2]): 2350 nM
IC50 (Chitotriosidase-1 [4]): 145 nM
Structure (SMILES): C[C@H](O)CN(CCc1ccc(Cl)cc1)C1CCN(c2nc(N)n[nH]2)CC1
IC50 [1]: 14000 nM
